In patent US8507502B2, “Fused bicyclic and tricyclic pyrimidine compounds as tyrosine kinase inhibitors” (National Health Research Institutes, priority 2008, dated 2013):
Like-named read-outs stand apart in the source and are kept apart here.

How the values were obtained:
GST-EGFR-KD^L858R/T790M = target: T1, GST-EGFR-KD^L858R/T790M (Homo sapiens, UniProt P00533, L858R/T790M); experiment: Double mutant EGFR kinase assay (Kinase-Glo); type: biochemical; conditions: 1 μM ATP, read-out: IC50 (concentration at which activity of 50% of mutant EGFR is inhibited)
T1 construct: residues from 696 to 1022 and with L858R/T790M; made in house; host or cells: Sf9 insect cells (baculovirus)
T1 sequence (P00533 696-1022 T790M/L858R): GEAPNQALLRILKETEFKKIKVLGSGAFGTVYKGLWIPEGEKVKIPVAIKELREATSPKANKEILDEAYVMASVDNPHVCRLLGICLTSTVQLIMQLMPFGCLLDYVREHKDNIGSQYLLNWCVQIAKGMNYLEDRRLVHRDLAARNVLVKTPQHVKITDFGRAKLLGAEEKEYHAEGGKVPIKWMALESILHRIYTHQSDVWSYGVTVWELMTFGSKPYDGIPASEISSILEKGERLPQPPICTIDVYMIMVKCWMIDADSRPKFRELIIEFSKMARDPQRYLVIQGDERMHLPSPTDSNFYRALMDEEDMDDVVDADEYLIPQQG
Method: Following incubation, 50 μL Kinase-Glo Plus Reagent (Promega) was added and the mixture was incubated at 25° C. for 20 min.

HCC827 = experiment: In vivo anticancer activity, lung cancer xenograft mice (injected with HCC827); set-up: species or system nude mice; conditions: for tumor size relative to that of the vehicle controls: days 1-5 and 8-12, 22nd day post treatment
Method: In vivo efficacy of the compounds of this invention was assessed using lung cancer xenograft mice (injected with HCC827), as described in Cancer Research 2004, 64, 4621-4628.
HCC827 cells were injected via s.c. in nude mice to form lung cancer xenograft mice. Mice bearing tumor with a size of ˜100 mm^3 were randomly assigned to two groups: a vehicle control group (10 mice), and a treatment group (21 mice). Of the treated mice, 21 received Compound 62 at a daily dosage of 5 mg/kg and 15 mg/kg via IV injection through the tail veins for 5 days/week for 2 consecutive weeks (days 1-5 and 8-12).

HCC827 cells = experiment: HCC827 cell viability, MTS assay; type: cell-based; conditions: Homo sapiens, 96-h incubation, read-out: IC50 (concentration which causes 50% of the cell death)
Method: HCC827 cell viability was examined by the MTS assay (Promega, Madison, Wis., USA). 1000 HCC827 cells in 100 μl RPMI1640 with 10% FBS medium were seeded in each well of a 96-well plate. After 96-h incubation with a test compound, the cells were further incubated with 20 μl of a MTS/PMS mixture (MTS/PMS ratio: 20:1) in each well of the 96-well plate for 2 h at 37° C. in a humidified incubator with 5% CO2 to allow viable cells to convert the tetrazolium salt (MTS) into formazan. The amount/concentration of formazan, which indicates the number of live cells, was determined by measuring its absorbance at 490 nm using a PerkinElmer Victor2 plate reader (PerkinElmer, Shelton, Conn., USA).

GST-EGFR-KD^WT = target: T2, GST-EGFR-KD^WT (Homo sapiens, UniProt P00533); experiment: EGFR kinase assay (Kinase-Glo); type: biochemical; conditions: 5 μM ATP, read-out: IC50 (concentration at which activity of 50% of EGFR is inhibited)
T2 construct: 50 ng GST-EGFR-KD^WT proteins; made in house
T2 sequence (P00533 712-979 limits assumed): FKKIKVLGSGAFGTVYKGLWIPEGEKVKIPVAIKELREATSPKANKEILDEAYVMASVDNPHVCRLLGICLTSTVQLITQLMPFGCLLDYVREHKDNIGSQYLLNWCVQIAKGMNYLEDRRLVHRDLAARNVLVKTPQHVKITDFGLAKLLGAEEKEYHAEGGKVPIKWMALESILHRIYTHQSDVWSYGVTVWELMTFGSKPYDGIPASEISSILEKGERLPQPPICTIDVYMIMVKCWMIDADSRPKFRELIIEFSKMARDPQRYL
Method: Following incubation, 50 μl Kinase-Glo Plus Reagent (Promega) was added and the mixture was further incubated at 25° C. for 20 min.

| SMILES | IC50 (GST-EGFR-KD^L858R/T790M) [nM] | tumor size relative to that of the vehicle controls (HCC827; 5 mg/kg daily IV) [%] | tumor size relative to that of the vehicle controls (HCC827; 15 mg/kg daily IV) [%] | tumor growth suppression (HCC827; 5 and 15 mg/kg IV, p<0.05) | IC50 (HCC827 cells) [nM] | IC50 (GST-EGFR-KD^WT) [nM] | IC50 (GST-EGFR-KD^WT; range given in mixed units) [nM] |
| --- | --- | --- | --- | --- | --- | --- | --- |
| CN(C)C/C=C/C(=O)N1CCc2c(sc3ncnc(N[C@H](CO)c4ccccc4)c23)C1 [Compound 62] | 10 to 499 | 39 | 23 | suppressed tumor growth significantly | 1 to 99 | < 59 |  |
| O=C(/C=C/CN1CCOCC1)N1CCc2c(sc3ncnc(N[C@H](CO)c4ccccc4)c23)C1 [Compound 66] | 500 to 2500 |  |  |  | 1 to 99 | < 59 |  |
| CN1CCN(C/C=C/C(=O)N2CCc3c(sc4ncnc(N[C@H](CO)c5ccccc5)c34)C2)CC1 [Compound 67] | 500 to 2500 |  |  |  | 1 to 99 | < 59 |  |
| CCN(CC)C/C=C/C(=O)N1CCc2c(sc3ncnc(N[C@H](CO)c4ccccc4)c23)C1 [Compound 75] | 500 to 2500 |  |  |  | 1 to 99 | < 59 |  |
| C=CC(=O)N1CCc2c(sc3ncnc(N[C@H](CC)c4ccccc4)c23)C1 [Compound 106] | 500 to 2500 |  |  |  | 1 to 99 | < 59 |  |
| C=CC(=O)N1CCc2c(sc3ncnc(N[C@H](CCO)c4ccccc4)c23)C1 [Compound 176] | 10 to 499 |  |  |  | 1 to 99 | < 59 |  |
| C[C@@H](Nc1ncnc2sc3c(c12)CCN(C(=O)/C=C/CN(C)C)C3)c1ccccc1 [Compound 178] | 500 to 2500 |  |  |  | 1 to 99 | < 59 |  |
| C=CC(=O)N1CCc2c(sc3ncnc(N[C@H](COC)c4ccccc4)c23)C1 [Compound 185] | 10 to 499 |  |  |  | 1 to 99 | < 59 |  |
| CN(C)C/C=C/C(=O)N1CCc2c(sc3ncnc(Nc4ccc(F)c(Cl)c4)c23)C1 [Compound 187] | 10 to 499 |  |  |  | 1 to 99 | < 59 |  |
| C=CC(=O)N1CCc2c(sc3ncnc(NC(CCO)c4ccccc4)c23)C1 (stereo not drawn) [Compound 188] | 500 to 2500 |  |  |  | 301 to 999 |  | 101 to 900 |
| CCN(CC)C/C=C/C(=O)N1CCc2c(sc3ncnc(N[C@H](C)c4ccccc4)c23)C1 [Compound 190] | 500 to 2500 |  |  |  | 1 to 99 | < 59 |  |
| CC[C@@H](Nc1ncnc2sc3c(c12)CCN(C(=O)/C=C/CN(CC)CC)C3)c1ccccc1 [Compound 191] | 500 to 2500 |  |  |  | 1 to 99 | < 59 |  |
| C=CC(=O)N1CCc2c(sc3ncnc(N[C@H](CO)Cc4ccccc4)c23)C1 [Compound 193] | 500 to 2500 |  |  |  | 301 to 999 | < 59 |  |
| C=CC(=O)N1CCc2c(sc3ncnc(N[C@H](COCc4ccccc4)c4ccccc4)c23)C1 [Compound 195] | 10 to 499 |  |  |  | 1 to 99 | < 59 |  |
| CN(C)C/C=C/C(=O)N1CCc2c(sc3ncnc(N[C@H](COCc4ccccc4)c4ccccc4)c23)C1 [Compound 198] | 500 to 2500 |  |  |  | 1 to 99 | < 59 |  |
| C=CC(=O)N1CCc2c(sc3ncnc(N[C@H](COCc4cccc(F)c4)c4ccccc4)c23)C1 [Compound 200] | 10 to 499 |  |  |  | 1 to 99 | < 59 |  |
| C=CC(=O)N1CCc2c(sc3ncnc(N[C@H](COCc4ccc(C(F)(F)F)cc4)c4ccccc4)c23)C1 [Compound 202] | 10 to 499 |  |  |  | 100 to 300 | < 59 |  |
| CN(C)C/C=C/C(=O)N1CCc2c(sc3ncnc(N[C@H](COCc4ccccn4)c4ccccc4)c23)C1 [Compound 203] | 500 to 2500 |  |  |  | 1 to 99 | < 59 |  |
| CNC/C=C/C(=O)N1CCc2c(sc3ncnc(N[C@H](C)c4ccccc4)c23)C1 [Compound 205] | 500 to 2500 |  |  |  | 1 to 99 | < 59 |  |
| CN(C)C/C=C/C(=O)N1CCc2c(sc3ncnc(N[C@H](COCc4cccc(F)c4)c4ccccc4)c23)C1 [Compound 210] | 10 to 499 |  |  |  | 1 to 99 | < 59 |  |
| C[C@@H](Nc1ncnc2sc3c(c12)CCN(C(=O)/C=C/CNC1CC1)C3)c1ccccc1 [Compound 211] | 500 to 2500 |  |  |  | 1 to 99 | < 59 |  |
| C[C@@H](Nc1ncnc2sc3c(c12)CCN(C(=O)/C=C/CN(CCO)CCO)C3)c1ccccc1 [Compound 215] | 500 to 2500 |  |  |  | 1 to 99 | < 59 |  |
| C=CC(=O)N1CCc2c(sc3ncnc(N[C@H](COCc4cccc(OC)c4)c4ccccc4)c23)C1 [Compound 223] | 10 to 499 |  |  |  | 1 to 99 | < 59 |  |
| C=CC(=O)N1CCc2c(sc3ncnc(N[C@H](COCc4cccc([N+](=O)[O-])c4)c4ccccc4)c23)C1 [Compound 226] | 10 to 499 |  |  |  | 1 to 99 | < 59 |  |
| C=CC(=O)N1CCc2c(sc3ncnc(N[C@H](COCc4cccc(C)c4)c4ccccc4)c23)C1 [Compound 227] | 10 to 499 |  |  |  | 1 to 99 | < 59 |  |
| COc1cccc(COC[C@@H](Nc2ncnc3sc4c(c23)CCN(C(=O)/C=C/CN(C)C)C4)c2ccccc2)c1 [Compound 228] | 500 to 2500 |  |  |  | 1 to 99 | < 59 |  |
| CN(C)C/C=C/C(=O)N1CCc2c(sc3ncnc(N[C@H](COCc4ccccc4F)c4ccccc4)c23)C1 [Compound 232] | 500 to 2500 |  |  |  | 1 to 99 | < 59 |  |
| C=CC(=O)Nc1cccc(-c2c(-c3ccccc3)oc3ncnc(N[C@H](C)c4ccccc4)c23)c1 [Compound 239] | 500 to 2500 |  |  |  | 1 to 99 |  | 101 to 900 |
| CC#CC(=O)Nc1cccc(-c2c(-c3ccccc3)oc3ncnc(N[C@H](CO)c4ccccc4)c23)c1 [Compound 241] | 500 to 2500 |  |  |  | 1 to 99 | < 59 |  |
